Tests used:
[1] = molecular target: Fyn (Homo sapiens (Human), UniProt P06241); assay: Z′-LYTE in vitro Fyn kinase activity assay; assay type: biochemical; conditions: ATP 50 μM; read-out: FYN KINASE INHIBITION IC50
Procedure: The Fyn kinase inhibitory activity of representative examples of compounds of Formula (1) was evaluated by Z′-LYTE™ Kinase Assay Platform (Invitrogen). Compounds were evaluated towards active Fyn (full length active, molecular weight 87.1 kDa; Invitrogen). […] Samples representing the 0% inhibition (or total enzymatic activity) were in the presence of compound diluent (1% DMSO final in Reaction Buffer 50 mMHepes, 10 mM MgCl2, 1 mM EGTA, 0.01% Brij-35, pH 7.5). The kinase reaction was carried out in a total volume of 10 μl, for 60 minutes at 25° C. The 0% Phosphorylation (i.e. no ATP) and 100% Phosphorylation Assay Controls, included in each plate, allowed to calculate the percent phosphorylation achieved in the specific reaction well. Results are expressed as percentage of inhibition and the IC50 values were calculated by non-linear curve fitting using GraphPad™ Prism software (version 6 for Windows).

[2] = molecular target: VEGFR2 (Homo sapiens (Human), UniProt P35968); assay: In vitro VEGFR2 kinase activity assay (Eurofins Cerep); assay type: biochemical; conditions: read-out: VEGFR2 KINASE INHIBITION IC50
VEGFR2, sequence (P35968 20-1356): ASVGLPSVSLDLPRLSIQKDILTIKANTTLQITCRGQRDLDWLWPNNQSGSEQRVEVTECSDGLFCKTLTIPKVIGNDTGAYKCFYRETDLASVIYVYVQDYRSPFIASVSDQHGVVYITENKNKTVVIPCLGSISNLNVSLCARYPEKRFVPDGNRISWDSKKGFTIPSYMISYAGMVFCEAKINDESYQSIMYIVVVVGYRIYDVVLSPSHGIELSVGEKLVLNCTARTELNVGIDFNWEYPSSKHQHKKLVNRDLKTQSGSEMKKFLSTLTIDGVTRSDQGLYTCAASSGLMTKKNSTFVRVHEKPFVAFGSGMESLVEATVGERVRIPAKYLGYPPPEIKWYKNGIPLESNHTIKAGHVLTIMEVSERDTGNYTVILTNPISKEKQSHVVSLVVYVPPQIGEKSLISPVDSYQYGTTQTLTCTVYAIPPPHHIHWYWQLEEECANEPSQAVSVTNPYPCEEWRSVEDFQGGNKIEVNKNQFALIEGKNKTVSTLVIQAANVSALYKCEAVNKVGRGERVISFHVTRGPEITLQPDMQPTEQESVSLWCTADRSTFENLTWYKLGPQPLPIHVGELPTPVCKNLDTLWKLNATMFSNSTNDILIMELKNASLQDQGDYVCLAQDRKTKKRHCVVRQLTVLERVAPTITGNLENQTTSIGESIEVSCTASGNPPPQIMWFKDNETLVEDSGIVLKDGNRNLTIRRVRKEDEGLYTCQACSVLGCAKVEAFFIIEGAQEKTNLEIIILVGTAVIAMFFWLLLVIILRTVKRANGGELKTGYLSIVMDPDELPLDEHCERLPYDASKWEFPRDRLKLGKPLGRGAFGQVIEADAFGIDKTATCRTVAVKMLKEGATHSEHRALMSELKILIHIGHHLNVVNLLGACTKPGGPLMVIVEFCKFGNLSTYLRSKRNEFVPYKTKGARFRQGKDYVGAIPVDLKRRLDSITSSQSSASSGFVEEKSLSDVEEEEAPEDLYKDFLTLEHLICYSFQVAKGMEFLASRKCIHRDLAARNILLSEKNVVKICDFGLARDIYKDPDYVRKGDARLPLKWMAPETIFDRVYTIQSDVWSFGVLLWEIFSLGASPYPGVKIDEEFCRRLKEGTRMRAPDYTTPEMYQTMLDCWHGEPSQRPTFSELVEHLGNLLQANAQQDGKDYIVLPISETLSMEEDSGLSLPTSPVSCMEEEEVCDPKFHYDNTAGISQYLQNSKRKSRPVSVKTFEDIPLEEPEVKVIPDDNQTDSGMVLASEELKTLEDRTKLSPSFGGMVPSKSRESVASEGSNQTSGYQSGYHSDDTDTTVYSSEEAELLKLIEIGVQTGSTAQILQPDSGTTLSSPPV
Procedure: The VEGFR2 kinase inhibitory activity of representative examples of compounds of Formula (I) assays was evaluated in Eurofins Cerep (France). The concentration range of the inhibitors under investigation was from 10^−8 M up to 10^−5 M final concentration. Some compounds were re-tested in a concentration-range starting from 10^−9 M. The results are expressed as a percent of control activity (in the absence of test compound) and the IC50 values were determined by non-linear regression analysis of the inhibition/concentration curves generated with mean replicate values.

[3] = system: NF-kB; assay: Gene reporter (GR) assay, NF-kB activation after TNFα in JB6 Cl 41-5a (P+) cells; assay type: cell-based, murine; conditions: Mus musculus, JB6 Cl 41-5a, TNFα 2 ng/ml, non toxic concentrations; read-out: Gene reporter (GR) inhibition IC50
Excerpt: To determine if the compounds of the invention were active also in a cellular model, a gene reporter assay was established in a cell line (JB6 Cl 41-5a (P+)) know to activate Fyn kinase via an inflammatory stimuli (TNFα). GR assay measures the activation of the nuclear transcription factor NF-kB, situated down-stream the Fyn activation pathway. Products active in this analysis has to penetrate in the cell and inhibit the activation pathway of NF-kB.
The murine epithelial cell line JB6 Cl 41-5a (P+) (ATCC® Cat. #CRL-2010) was stably transfected with the pGL4.32[luc2P/NFkB-RE/Hygro] vector (Promega). Clonal selection was achieved by limiting with 80 μg/ml Hygromycin B. The clones were tested for their response to TNFα stimulus.
JB6(P+) NFkB-RE-luc2P transfected cells were used for the analysis of NF-kB activity modulation, after TNFα stimulation, by Fyn-inhibitors.
Cells were pre-treated with the different compounds for 1 h and then stimulated with 2 ng/ml TNFα for 4 h. Each tested condition was analyzed in quadruplicate.
The luciferase analysis was performed with ONE-Glo™+ToxLuciferase Reporter and Cell Viability Assay kit (Promega).

[4] = system: IL-1β; assay: Gene expression in rat articular chondrocytes under IL-1β stimulation, IL-1β; assay type: cell-based; conditions: 6 h
Procedure: (§1) For gene expression analysis, 10 days after plating, the medium was changed and substituted with DMEM GlutaMAX I 0.4% to synchronize the cells. The cells were then co-treated in DMEM GlutaMAX I 0.4% with different concentrations of the test compounds and […] at a final concentration of 2 ng/ml for 6 h and 24 h. The test compound concentrations used have been chosen on the basis of the toxicity data.
(§2) At the end of the incubation, the supernatant was discarded, the cell were washed with cold PBS1X and scraped with 200 μl of RNA lysis buffer 1X (Nucleic Acid Purification Lysis Solution, Applied Biosystems).
(§3) Total RNA was purified using ABI Prism™ 6100 Nucleic Acid PrepStation (Applied Biosystems) following manufacturer's instructions.
(§4) Total RNA was retrotranscribed using the High-Capacity cDNA Archive Kit (Applied Biosystems-Thermo Fisher Scientific) following manufacturer's instructions.
(§5) The specific probes and primers for RealTime PCR were from Applied Biosystems (Thermo Fisher Scientific) as Assays-on-Demand™, while the probe and primers for the endogenous control 18S was a PDAR (Pre-Developed TaqMan® Assay Reagents—Applied Biosystems-Thermo Fisher Scientific).
(§6) The assays were designed to amplify target cDNA without amplifying genomic DNA.
(§7) Gene expression analysis for IL-1β, IL-6 and ADAMTS-5 were performed at 6 h incubation, while the gene expression analysis for MMP3, MMP13 and COX2 were performed at 24 h incubation.
(§8) For each compound the maximal concentration tested was dependent on the toxicity results obtained on primary rat chondrocytes.
(§9) The data analysis, with the normalisation on the amplified values for the 18S was done following the specific instruction of Applied Biosystems for the relative quantification of gene expression.

[5] = system: IL-6; assay: Gene expression in rat articular chondrocytes under IL-1β stimulation, IL-6; assay type: cell-based; conditions: 6 h
Procedure: as §1, §2, §3, §4, §5, §6, §7, §8, §9

[6] = system: COX2; assay: Gene expression in rat articular chondrocytes under IL-1β stimulation, COX2; assay type: cell-based; conditions: 24 h
[7] = system: ADAMTS-5; assay: Gene expression in rat articular chondrocytes under IL-1β stimulation, ADAMTS-5; assay type: cell-based; conditions: for ADAMTS-5 gene expression, percentage of inhibitory effect at the highest non toxic concentration: 6 h; for IC50: Rattus norvegicus, Chondrocyte, 6 h incubation
Procedure: as §1, §2, §3, §4, §5, §6, §7, §8, §9

[8] = system: MMP3; assay: Gene expression in rat articular chondrocytes under IL-1β stimulation, MMP3; assay type: cell-based; design: key to MMP3 gene expression, no effect: ne: no effect; conditions: for MMP3 gene expression, percentage of inhibitory effect at the highest non toxic concentration: 3 μM; for IC50: Rattus norvegicus, Chondrocyte, 24 h incubation
Procedure: as §1, §2, §3, §4, §5, §6, §7, §8, §9

[9] = system: MMP13; assay: Gene expression in rat articular chondrocytes under IL-1β stimulation, MMP13; assay type: cell-based; conditions: for MMP13 gene expression, percentage of inhibitory effect at the highest non toxic concentration: 24 h; for IC50: Rattus norvegicus, Chondrocyte, 24 h incubation
Procedure: as §1, §2, §3, §4, §5, §6, §7, §8, §9

[10] = system: bovine nasal septum cartilage; assay: Inhibition of cartilage degradation (GAG release) induced by IL-1α in a bovine in vitro model; assay type: cell-based
Procedure: Nasal septum cartilage was collected from an eight months-old male bovine in a local slaughterhouse.
Tissue was sprayed with ethanol 70% and immediately put in sterile PBS with Antibiotic-Antimycotic stabilized solution (PBS-AASS). It was cut in order to obtain small punches (diameter 2 mm, 1 mm-thick). washed with sterile PBS-AASS, the slices were transferred in a 96X well plate (one piece per well) in DMEM 10%+AASS. 48 h later the cartilage was stimulated in white DMEM+0.1% BSA+AASS with IL-1α […] in the absence or presence of the studied compounds.
The compounds concentration used in this analysis was chosen depending on the toxicity results obtained in rat primary chondrocytes at 48 h of incubation.
After 48 h stimulation, the culture medium was collected and stored at −80° C. The cartilage punches were digested with papain at 65° C. for 2 h in phosphate buffer (0.05M pH 6.5 with 2 mM N-acetil-L-cisteine and 2 mM EDTA).
The glycosaminoglycan (GAG) determination was done by a colorimetric assay with 1,9 dimethyl methylene blue (DMB).
Digested cartilage samples were diluted in PBS-BSA 1%. To 100 μl of diluted samples or standard we added 100 μl DMB 2X. After 5-20 min incubation the samples were read at 590 nm (Titertek Multiscan Plus).
The cartilage degradation induced by IL-1α was expressed as: GAG (medium)/total GAG (medium+cartilage)×100

[11] = system: rat primary articular chondrocytes; assay: Toxicity analysis (MTT) in rat primary chondrocytes; conditions: for First toxic concentration at 24 h: rat primary chondrocytes
Procedure: Purified chondrocytes were resuspended in DMEM glutaMAX 10% and plated in a 96X well plate for toxicity analysis and in a 6X well plate for gene expression analysis.
For toxicity analysis cells were then treated with the different compounds for 24 and 48 h. At the end of the incubation time, the medium was removed and was substituted with a mixture 10:1 of DMEM glutaMAX 10%—MTT (2 mg/ml) for 1 h at 37° C. in the cell incubator. After this incubation, the precipitated salt was dissolved with 100 μl of DMSO and the plate was read at 540 nm. The toxicity analysis were performed to decide the maximal non toxic concentration of each compound used in the gene expression assay.

[12] = Bos taurus, read-out: Bovine cartilage degradation induced by IL-1α, % inhibitory effect at max concentration

Fyn, sequence (P06241 whole entry): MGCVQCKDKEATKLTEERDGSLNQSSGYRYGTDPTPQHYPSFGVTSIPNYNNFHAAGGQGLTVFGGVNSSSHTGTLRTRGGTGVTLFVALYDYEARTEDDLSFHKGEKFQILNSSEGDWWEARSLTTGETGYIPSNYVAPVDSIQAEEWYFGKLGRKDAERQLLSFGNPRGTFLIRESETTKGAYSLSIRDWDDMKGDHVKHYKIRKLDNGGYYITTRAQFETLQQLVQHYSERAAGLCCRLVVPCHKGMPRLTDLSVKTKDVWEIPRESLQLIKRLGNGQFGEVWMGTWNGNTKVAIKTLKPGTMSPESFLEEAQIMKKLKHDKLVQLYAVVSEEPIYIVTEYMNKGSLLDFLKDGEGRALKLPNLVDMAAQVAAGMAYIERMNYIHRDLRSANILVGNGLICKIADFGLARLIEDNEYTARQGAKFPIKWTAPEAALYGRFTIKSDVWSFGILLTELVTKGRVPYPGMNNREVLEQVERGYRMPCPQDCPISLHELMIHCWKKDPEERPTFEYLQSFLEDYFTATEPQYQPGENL

| SMILES | IC50 [1] | IC50 [2] | IC50 [3] | IL-1β gene expression, percentage of inhibitory effect at the highest non toxic concentration ([4]; 3 μM) | IL-6 gene expression, percentage of inhibitory effect at the highest non toxic concentration ([5]; 3 μM) | COX2 gene expression, percentage of inhibitory effect at the highest non toxic concentration ([6]; 3 μM) | ADAMTS-5 gene expression, percentage of inhibitory effect at the highest non toxic concentration ([7]; 3 μM) | MMP3 gene expression, percentage of inhibitory effect at the highest non toxic concentration ([8]; 24 h) | MMP13 gene expression, percentage of inhibitory effect at the highest non toxic concentration ([9]; 3 μM) | inhibition at 3 µM [10, 12] | First toxic concentration at 48 h in rat primary chondrocytes [11] | First toxic concentration at 24 h [11] | IL-1β gene expression, percentage of inhibitory effect at the highest non toxic concentration ([4]; 10 μM) | IL-6 gene expression, percentage of inhibitory effect at the highest non toxic concentration ([5]; 10 μM) | COX2 gene expression, percentage of inhibitory effect at the highest non toxic concentration ([6]; 10 μM) | IC50 [8] | IC50 [9] | IC50 [7] | inhibition at 1 µM [10, 12] | also measured |
| --- | --- | --- | --- | --- | --- | --- | --- | --- | --- | --- | --- | --- | --- | --- | --- | --- | --- | --- | --- | --- |
| Cc1ccc(NC(=O)c2cccc(C(F)F)c2)cc1CCc1cc(Nc2cnccn2)[nH]n1 [Compound 33, 3-(difluoromethyl)-N-(4-methyl-3-(2-(5-(pyrazin-2-ylamino)-1H-pyrazol-3-yl)ethyl)phenyl) benzamide] | 16 nM | < 10 nM | 363 nM | 3 μM 93% | 3 μM 100% | 3 μM 89% | 3 μM 90% | 3 μM 81% | 3 μM 94% | 91% | 10 µM | 10 µM | – | – | – | – | – | – | – | – |
| CC(C)(C#N)c1cc(C(=O)Nc2ccc(F)c(CCc3cc(Nc4cnccn4)[nH]n3)c2)ccn1 [Compound 11, 2-(2-cyanopropan-2-yl)-N-(4-fluoro-3-(2-(5-(pyrazin-2-ylamino)-1H-pyrazol-3-yl)ethyl)phenyl)isonicotinamide] | 21 nM | < 10 nM | 785 nM | – | – | – | – | – | – | – | >10 µM | >10 µM | 10 μM 100% | 10 μM 100% | 10 μM 100% | 2200 nM | 2400 nM | – | – | ADAMTS-5 gene expression, percentage of inhibitory effect at the highest non toxic concentration ([7]; 10 μM): 10 μM 100%; inhibition at 10 µM ([10]; Bos taurus, 10 μM, read-out: Bovine cartilage degradation induced by IL-1α, % inhibitory effect at max concentration): 89% |
| Cc1ccc(NC(=O)c2ccnc(C(C)(C)O)c2)cc1CCc1cc(Nc2cnccn2)[nH]n1 [Compound 5, 2-(2-hydroxypropan-2-yl)-N-(4-methyl-3-(2-(5-(pyrazin-2-ylamino)-1H-pyrazol-3-yl)ethyl)phenyl)isonicotinamide] | 6 nM | < 10 nM | 3260 nM | – | – | – | – | – | – | 79% | 10 µM | >10 µM | 10 μM 84% | 10 μM 89% | 10 μM 43% | – | – | 5500 nM | – | MMP3 gene expression, no effect ([8]; 24 h): ne; MMP13 gene expression, percentage of inhibitory effect at the highest non toxic concentration ([9]; 10 μM): 10 μM 32% |
| Cc1ccc(NC(=O)c2cccc(C(F)(F)F)c2)cc1CCc1cnc(Nc2cnccn2)s1 [Compound 49, N-(4-methyl-3-(2-(2-(pyrazin-2-ylamino)thiazol-5-yl)ethyl)phenyl)-3-(trifluoromethyl) benzamide] | 143 nM | – | 422 nM | – | – | – | – | – | – | – | 3 µM | 3 µM | – | – | – | 500 nM | 240 nM | 200 nM | 35% | IL-1β gene expression, percentage of inhibitory effect at the highest non toxic concentration ([4]; 1 μM): 1 μM 91%; IL-6 gene expression, percentage of inhibitory effect at the highest non toxic concentration ([5]; 1 μM): 1 μM 100%; COX2 gene expression, percentage of inhibitory effect at the highest non toxic concentration ([6]; 1 μM): 1 μM 93% |
| Cc1nccnc1Nc1cc(CCc2cc(NC(=O)c3cccc(C(F)(F)F)c3)ccc2F)n[nH]1 [Compound 15, N-(4-fluoro-3-(2-(5-((3-methylpyrazin-2-yl)amino)-1H-pyrazol-3-yl)ethyl)phenyl)-3-(trifluoromethyl)benzamide] | 18 nM | < 10 nM | – | 3 μM 98% | 3 μM 100% | 3 μM 97% | 3 μM 96% | 3 μM 90% | 3 μM 99% | – | 3 µM | 10 µM | – | – | – | – | – | – | 96% | Inhibitory effect on the GAG release ([10]; at max concentration): 95-100% |
